Read-outs that look alike come from different tables or passages of the source.
How the values were obtained:
Assay type in all cases: biochemical
[1] = target: Human Tyk2 kinase domain (Homo sapiens (Human), UniProt P29597); test: Tyk2 Inhibition Assay (Example A, Omnia kinase fluorescence peptide substrate assay); conditions: TYK2 Enzyme IC50 1 mM ATP, averaged IC50 ranges
Summary of the method: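 IC50 values come from a 4-parameter logistic fit of percent-of-control data, with compounds at 2% final DMSO. Reactions held 1 nM His-tag-cleaved Tyk2 (aa 886–1187), 8 μM Omnia Y12 peptide and 1 mM ATP in pH 7.4 HEPES buffer with 10 mM MgCl2, Triton X-100 and DTT. Sox fluorescence (360/485 nm) was monitored kinetically over 45 min.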

[2] = target: JAK1 (Homo sapiens (Human), UniProt P23458); test: JAK1 Inhibition Assay (Example B, Omnia kinase fluorescence peptide substrate assay)
Summary of the method: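 Kinetic fluorescence read (360 nm excitation, 485 nm emission, every 50 s over 45 min) of Omnia Y12 peptide (8 μM) phosphorylation by 12.5 nM human JAK1 at 1 mM ATP. Buffer: HEPES pH 7.4, MgCl2, Triton X-100, DTT; 2% DMSO. IC50 = concentration giving 50 POC on logistic curve.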

[3] = target: JAK2 (Homo sapiens (Human), UniProt O60674); test: JAK2 Inhibition Assay (Example C, Omnia kinase fluorescence peptide substrate assay); conditions: JAK2 Enzyme IC50 1 mM ATP, averaged IC50 ranges
Summary of the method: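 Kinetic fluorescence read of Omnia Y7 peptide (10 μM) phosphorylation, ex 360/em 485 nm every 50 s over 45 min, by 4 nM JAK2 at 1 mM ATP. Buffer 25 mM HEPES pH 7.4, 10 mM MgCl2, 0.01% Triton X-100, 1 mM DTT; final DMSO 2%. Percent-of-control values fitted by 4-parameter logistic for IC50.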

[4] = target: JAK3 (Homo sapiens (Human), UniProt P52333); test: JAK3 Inhibition Assay (Example D, Omnia kinase fluorescence peptide substrate assay)
Summary of the method: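 Omnia Sox-peptide kinetic read (ex 360 nm, em 485 nm, every 50 s over 45 min) tracked phosphorylation of 10 μM Y7 peptide by 2 nM recombinant JAK3 at 1 mM ATP. Buffer: 25 mM HEPES pH 7.4, 10 mM MgCl2, 0.01% Triton X-100, 1 mM DTT, with 2% DMSO final.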

[5] = JAK1 Enzyme IC50 1 mM ATP, 1 mM ATP, averaged IC50 ranges

Human Tyk2 kinase domain, sequence (P29597 886-1187): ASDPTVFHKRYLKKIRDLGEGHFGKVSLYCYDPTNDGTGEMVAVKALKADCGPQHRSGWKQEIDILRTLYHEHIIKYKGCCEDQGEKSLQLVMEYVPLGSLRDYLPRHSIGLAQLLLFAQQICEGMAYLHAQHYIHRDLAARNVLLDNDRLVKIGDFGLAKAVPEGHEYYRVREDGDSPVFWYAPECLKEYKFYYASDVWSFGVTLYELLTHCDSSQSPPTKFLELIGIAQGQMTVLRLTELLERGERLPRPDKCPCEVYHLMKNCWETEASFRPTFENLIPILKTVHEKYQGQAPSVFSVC
JAK1, sequence (P23458 whole entry): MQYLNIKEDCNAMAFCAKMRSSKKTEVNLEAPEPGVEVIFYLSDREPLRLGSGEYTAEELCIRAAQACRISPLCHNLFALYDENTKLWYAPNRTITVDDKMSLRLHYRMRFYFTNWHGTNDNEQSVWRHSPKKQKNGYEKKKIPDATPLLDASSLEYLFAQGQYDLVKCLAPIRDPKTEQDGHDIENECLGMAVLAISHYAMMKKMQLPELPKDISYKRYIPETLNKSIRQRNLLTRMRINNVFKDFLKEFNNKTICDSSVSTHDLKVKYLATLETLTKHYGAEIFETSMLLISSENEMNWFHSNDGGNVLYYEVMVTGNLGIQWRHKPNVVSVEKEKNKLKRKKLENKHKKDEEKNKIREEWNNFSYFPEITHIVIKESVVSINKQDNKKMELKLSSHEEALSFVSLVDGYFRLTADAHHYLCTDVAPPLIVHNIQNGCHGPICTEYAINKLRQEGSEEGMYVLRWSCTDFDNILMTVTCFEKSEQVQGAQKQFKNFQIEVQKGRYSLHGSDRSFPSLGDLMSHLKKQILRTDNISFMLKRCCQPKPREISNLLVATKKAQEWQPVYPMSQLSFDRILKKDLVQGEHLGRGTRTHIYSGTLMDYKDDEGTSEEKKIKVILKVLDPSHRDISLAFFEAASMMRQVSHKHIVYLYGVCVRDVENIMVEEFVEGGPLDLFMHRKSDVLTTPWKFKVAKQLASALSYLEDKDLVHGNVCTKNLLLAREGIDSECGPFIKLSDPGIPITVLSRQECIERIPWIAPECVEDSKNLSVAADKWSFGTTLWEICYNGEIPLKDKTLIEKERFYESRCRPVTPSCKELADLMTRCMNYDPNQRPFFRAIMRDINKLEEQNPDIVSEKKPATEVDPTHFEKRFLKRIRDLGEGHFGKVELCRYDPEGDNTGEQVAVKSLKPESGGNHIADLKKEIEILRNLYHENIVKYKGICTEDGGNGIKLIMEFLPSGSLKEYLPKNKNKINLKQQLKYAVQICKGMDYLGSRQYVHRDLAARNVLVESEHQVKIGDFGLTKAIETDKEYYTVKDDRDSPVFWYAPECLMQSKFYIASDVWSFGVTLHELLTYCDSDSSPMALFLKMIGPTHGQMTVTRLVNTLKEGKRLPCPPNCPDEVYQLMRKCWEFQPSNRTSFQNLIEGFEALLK
JAK2, sequence (O60674 whole entry): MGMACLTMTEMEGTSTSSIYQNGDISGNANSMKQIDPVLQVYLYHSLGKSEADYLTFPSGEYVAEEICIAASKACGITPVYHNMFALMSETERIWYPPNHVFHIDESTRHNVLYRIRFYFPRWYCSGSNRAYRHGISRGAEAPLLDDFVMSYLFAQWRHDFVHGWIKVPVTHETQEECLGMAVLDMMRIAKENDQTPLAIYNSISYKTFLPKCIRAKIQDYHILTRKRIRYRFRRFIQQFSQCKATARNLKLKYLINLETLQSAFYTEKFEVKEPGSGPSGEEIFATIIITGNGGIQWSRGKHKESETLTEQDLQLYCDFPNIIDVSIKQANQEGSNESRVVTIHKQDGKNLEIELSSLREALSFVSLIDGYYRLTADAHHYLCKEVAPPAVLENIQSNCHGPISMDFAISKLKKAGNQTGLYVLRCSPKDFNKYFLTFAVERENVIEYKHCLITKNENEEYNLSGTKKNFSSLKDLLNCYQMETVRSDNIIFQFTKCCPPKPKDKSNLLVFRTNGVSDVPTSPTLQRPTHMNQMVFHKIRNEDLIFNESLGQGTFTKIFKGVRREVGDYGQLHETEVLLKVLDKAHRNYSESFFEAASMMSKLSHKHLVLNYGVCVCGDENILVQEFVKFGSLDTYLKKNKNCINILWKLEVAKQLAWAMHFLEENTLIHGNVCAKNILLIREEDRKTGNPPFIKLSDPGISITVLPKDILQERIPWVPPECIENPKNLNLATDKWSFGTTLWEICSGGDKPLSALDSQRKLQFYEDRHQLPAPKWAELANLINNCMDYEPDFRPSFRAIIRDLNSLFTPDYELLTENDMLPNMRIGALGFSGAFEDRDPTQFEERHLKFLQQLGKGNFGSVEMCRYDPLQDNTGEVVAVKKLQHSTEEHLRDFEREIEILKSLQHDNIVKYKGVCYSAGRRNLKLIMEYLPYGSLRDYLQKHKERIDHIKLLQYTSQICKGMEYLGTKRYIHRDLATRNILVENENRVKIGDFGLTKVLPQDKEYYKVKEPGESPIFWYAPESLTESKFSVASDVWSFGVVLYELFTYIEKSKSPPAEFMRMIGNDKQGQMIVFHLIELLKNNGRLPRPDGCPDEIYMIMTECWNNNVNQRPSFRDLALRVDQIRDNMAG
JAK3, sequence (P52333 whole entry): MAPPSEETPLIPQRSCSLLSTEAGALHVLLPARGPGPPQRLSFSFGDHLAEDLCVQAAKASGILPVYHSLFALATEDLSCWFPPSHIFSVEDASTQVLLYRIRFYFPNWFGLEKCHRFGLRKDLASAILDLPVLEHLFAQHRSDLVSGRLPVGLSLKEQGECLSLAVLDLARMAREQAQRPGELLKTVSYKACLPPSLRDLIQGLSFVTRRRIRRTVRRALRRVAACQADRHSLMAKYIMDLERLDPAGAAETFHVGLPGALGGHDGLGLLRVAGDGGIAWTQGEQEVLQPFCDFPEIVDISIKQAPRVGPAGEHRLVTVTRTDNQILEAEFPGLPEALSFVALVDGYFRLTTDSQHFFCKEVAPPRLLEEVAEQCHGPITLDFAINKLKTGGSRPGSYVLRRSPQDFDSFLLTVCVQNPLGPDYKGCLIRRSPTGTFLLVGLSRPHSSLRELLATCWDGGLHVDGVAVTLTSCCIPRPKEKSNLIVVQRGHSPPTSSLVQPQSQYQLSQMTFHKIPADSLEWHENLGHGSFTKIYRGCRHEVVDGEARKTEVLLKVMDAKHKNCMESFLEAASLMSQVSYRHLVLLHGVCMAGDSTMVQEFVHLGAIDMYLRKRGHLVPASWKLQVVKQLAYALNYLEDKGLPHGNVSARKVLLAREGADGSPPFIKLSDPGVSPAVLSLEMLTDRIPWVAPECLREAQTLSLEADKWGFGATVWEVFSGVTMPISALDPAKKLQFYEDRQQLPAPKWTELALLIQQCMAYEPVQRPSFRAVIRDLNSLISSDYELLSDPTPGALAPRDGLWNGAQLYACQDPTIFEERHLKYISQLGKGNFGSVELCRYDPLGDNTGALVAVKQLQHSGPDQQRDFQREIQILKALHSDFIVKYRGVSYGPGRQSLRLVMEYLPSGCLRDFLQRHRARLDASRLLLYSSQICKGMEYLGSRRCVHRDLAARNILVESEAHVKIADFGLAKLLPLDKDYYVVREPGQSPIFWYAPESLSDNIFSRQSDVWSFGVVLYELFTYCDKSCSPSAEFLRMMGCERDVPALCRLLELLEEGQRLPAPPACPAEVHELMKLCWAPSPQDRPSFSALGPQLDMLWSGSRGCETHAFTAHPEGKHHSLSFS

Row | IC50 [1] [nM] | IC50 [2] [nM] | IC50 [3] [nM] | IC50 [4] [nM] | IC50 [2, 5] [nM] | SMILES
1 | 10 to 100 | 1000 to 10000 | 10 to 100 | 1000 to 10000 |  | CCC(CC)n1cc(-c2nc(-c3cnn(C[C@H](CN)OC)c3)cn3nccc23)cn1 (single isomer, unassigned) [Example 149]
2 | 10 to 100 | 1000 to 10000 | 10 to 100 | 1000 to 10000 |  | CCC[C@@H](C)n1cc(-c2nc(-c3cnn(C(CO)CO)c3)cn3nccc23)cn1 [Example 83, (R)-2-(4-(4-(1-(pentan-2-yl)-1H-pyrazol-4-yl)pyrazolo[1,5-a]pyrazin-6-yl)-1H-pyrazol-1-yl)propane-1,3-diol]
3 | 10 to 100 |  | 100 to 1000 | 1000 to 10000 | 1000 to 10000 | CCC(CC)n1cc(-c2nc(-c3cnn([C@@H](C)CO)c3)cn3nccc23)cn1 [Example 125, (S)-2-(4-(4-(1-(pentan-3-yl)-1H-pyrazol-4-yl)pyrazolo[1,5-a]pyrazin-6-yl)-1H-pyrazol-1-yl)propan-1-ol]
4 | 10 to 100 | 100 to 1000 | 10 to 100 | 1000 to 10000 |  | CCC(CC)n1cc(-c2nc(-c3cnn(C4CCN(C(=O)N(C)C)CC4)c3)cn3nccc23)cn1 [Example 35, N,N-dimethyl-4-(4-(4-(1-(pentan-3-yl)-1H-pyrazol-4-yl)pyrazolo[1,5-a]pyrazin-6-yl)-1H-pyrazol-1-yl)piperidine-1-carboxamide]
5 | 10 to 100 |  | < 10 | 100 to 1000 | 100 to 1000 | CC[C@@H]1CCC[C@@H]1n1cc(-c2nc(-c3cnn(C[C@@H](O)CO)c3)cn3nccc23)cn1 (single isomer, unassigned) [Example 207]
6 | 10 to 100 |  | 10 to 100 | 1000 to 10000 | 10 to 100 | CCC(CC)n1cc(-c2nc(-c3cnn(C[C@H](C)CO)c3)cn3nccc23)cn1 [Example 15, (S)-2-methyl-3-(4-(4-(1-(pentan-3-yl)-1H-pyrazol-4-yl)pyrazolo[1,5-a]pyrazin-6-yl)-1H-pyrazol-1-yl)propan-1-ol]
7 | 10 to 100 |  | 10 to 100 | 1000 to 10000 | 10 to 100 | CCC(CC)n1cc(-c2nc(-c3cnn(CC(C)(C)CO)c3)cn3nccc23)cn1 [Example 191, 2,2-dimethyl-3-(4-(4-(1-(pentan-3-yl)-1H-pyrazol-4-yl)pyrazolo[1,5-a]pyrazin-6-yl)-1H-pyrazol-1-yl)propan-1-ol]
8 | 10 to 100 | 1000 to 10000 | 10 to 100 | 1000 to 10000 |  | CCC(CC)n1cc(-c2nc(-c3cnn(CCN4CCCC4)c3)cn3nccc23)cn1 [Example 135, 4-(1-(pentan-3-yl)-1H-pyrazol-4-yl)-6-(1-(2-(pyrrolidin-1-yl)ethyl)-1H-pyrazol-4-yl)pyrazolo[1,5-a]pyrazine]
9 | 10 to 100 | 100 to 1000 | 10 to 100 | 1000 to 10000 |  | CCC(CC)n1cc(-c2nc(-c3cnn(C(C)(C)CO)c3)cn3nccc23)cn1 [Example 124, 2-methyl-2-(4-(4-(1-(pentan-3-yl)-1H-pyrazol-4-yl)pyrazolo[1,5-a]pyrazin-6-yl)-1H-pyrazol-1-yl)propan-1-ol]
10 | 10 to 100 | 1000 to 10000 | 10 to 100 | 1000 to 10000 |  | CCC(CC)n1cc(-c2nc(-c3cnn(CCN4CCOCC4)c3)cn3nccc23)cn1 [Example 3, 4-(2-(4-(4-(1-(pentan-3-yl)-1H-pyrazol-4-yl)pyrazolo[1,5-a]pyrazin-6-yl)-1H-pyrazol-1-yl)ethyl)morpholine]
11 | 10 to 100 | 100 to 1000 | 10 to 100 | 1000 to 10000 |  | CCC(CC)n1cc(-c2nc(-c3cnn(C[C@@H](O)CC)c3)cn3nccc23)cn1 [Example 114, (S)-1-(4-(4-(1-(pentan-3-yl)-1H-pyrazol-4-yl)pyrazolo[1,5-a]pyrazin-6-yl)-1H-pyrazol-1-yl)butan-2-ol]
12 | 10 to 100 | 100 to 1000 | 10 to 100 | 1000 to 10000 |  | CCC(CC)n1cc(-c2nc(-c3cnn([C@@H](C)[C@H](O)CO)c3)cn3nccc23)cn1 [Example 89, (2S,3S)-3-(4-(4-(1-(pentan-3-yl)-1H-pyrazol-4-yl)pyrazolo[1,5-a]pyrazin-6-yl)-1H-pyrazol-1-yl)butane-1,2-diol]

Further lines, the compound ahead of its results:

Row | SMILES | IC50 [1] [nM] | IC50 [2] [nM] | IC50 [3] [nM] | IC50 [4] [nM] | IC50 [2, 5] [nM]
13 | CCC(CC)n1cc(-c2nc(-c3cnn([C@@H]4CCC[C@@H]4O)c3)cn3nccc23)cn1 [Example 189, (1S,2R)-2-(4-(4-(1-(pentan-3-yl)-1H-pyrazol-4-yl)pyrazolo[1,5-a]pyrazin-6-yl)-1H-pyrazol-1-yl)cyclopentanol] | 10 to 100 |  | 10 to 100 | 1000 to 10000 | 1000 to 10000
14 | CCC(CC)n1cc(-c2nc(-c3cnn(C4CN(C(=O)NC)C4)c3)cn3nccc23)cn1 [Example 39, N-methyl-3-(4-(4-(1-(pentan-3-yl)-1H-pyrazol-4-yl)pyrazolo[1,5-a]pyrazin-6-yl)-1H-pyrazol-1-yl)azetidine-1-carboxamide] | 10 to 100 | 10 to 100 | 10 to 100 | 1000 to 10000 | 
15 | CCC(CC)n1cc(-c2nc(-c3cnn(C[C@@H](O)CN(C)C)c3)cn3nccc23)cn1 [Example 101, (S)-1-(dimethylamino)-3-(4-(4-(1-(pentan-3-yl)-1H-pyrazol-4-yl)pyrazolo[1,5-a]pyrazin-6-yl)-1H-pyrazol-1-yl)propan-2-ol] | 10 to 100 |  | 10 to 100 | 1000 to 10000 | 1000 to 10000
16 | CCC(CC)n1cc(-c2nc(-c3cnn([C@@H](C)[C@@H](C)O)c3)cn3nccc23)cn1 (single isomer, unassigned) [Example 157] | 10 to 100 |  | 10 to 100 | 1000 to 10000 | 100 to 1000
17 | CCC(CC)n1cc(-c2nc(-c3cnn(C[C@@H](N)CO)c3)cn3nccc23)cn1 [Example 130, (R)-2-amino-3-(4-(4-(1-(pentan-3-yl)-1H-pyrazol-4-yl)pyrazolo[1,5-a]pyrazin-6-yl)-1H-pyrazol-1-yl)propan-1-ol] | 10 to 100 | 1000 to 10000 | 10 to 100 | 1000 to 10000 | 
18 | CC[C@H](C1CCC1)n1cc(-c2nc(-c3cnn(C[C@@H](O)CO)c3)cn3nccc23)cn1 (single isomer, unassigned) [Example 196] | 100 to 1000 |  | 100 to 1000 | 1000 to 10000 | 1000 to 10000
19 | CCC(CC)n1cc(-c2nc(-c3cnn(C[C@H]4C[C@@H](O)C4)c3)cn3nccc23)cn1 [Example 120, (1s,3s)-3-((4-(4-(1-(pentan-3-yl)-1H-pyrazol-4-yl)pyrazolo[1,5-a]pyrazin-6-yl)-1H-pyrazol-1-yl)methyl)cyclobutanol] | 10 to 100 | 100 to 1000 | 10 to 100 | 1000 to 10000 | 
20 | CCC(CC)n1cc(-c2nc(-c3cnn(C[C@@H](O)CN4CCCC4)c3)cn3nccc23)cn1 [Example 106, (S)-1-(4-(4-(1-(pentan-3-yl)-1H-pyrazol-4-yl)pyrazolo[1,5-a]pyrazin-6-yl)-1H-pyrazol-1-yl)-3-(pyrrolidin-1-yl)propan-2-ol] | 100 to 1000 |  | 100 to 1000 | 1000 to 10000 | 1000 to 10000
21 | CCC(CC)n1cc(-c2nc(-c3cnn(CC4(O)CCOCC4)c3)cn3nccc23)cn1 [Example 116, 4-((4-(4-(1-(pentan-3-yl)-1H-pyrazol-4-yl)pyrazolo[1,5-a]pyrazin-6-yl)-1H-pyrazol-1-yl)methyl)tetrahydro-2H-pyran-4-ol] | 10 to 100 |  | 10 to 100 | 1000 to 10000 | 1000 to 10000
22 | CCC(CC)n1cc(-c2nc(-c3cnn(CC(=O)N(C)C)c3)cn3nccc23)cn1 [Example 5, N,N-dimethyl-2-(4-(4-(1-(pentan-3-yl)-1H-pyrazol-4-yl)pyrazolo[1,5-a]pyrazin-6-yl)-1H-pyrazol-1-yl)acetamide] | 10 to 100 | 100 to 1000 | 100 to 1000 | 1000 to 10000 | 
23 | C[C@@H]1CCCC[C@H]1n1cc(-c2nc(-c3cnn(C[C@H](O)CO)c3)cn3nccc23)cn1 (single isomer, unassigned) [Example 152] | 10 to 100 |  | 10 to 100 | 1000 to 10000 | 1000 to 10000
24 | CCC(CC)n1cc(-c2nc(-c3cnn(CCN4CC[C@H](O)C4)c3)cn3nccc23)cn1 [Example 141, (S)-1-(2-(4-(4-(1-(pentan-3-yl)-1H-pyrazol-4-yl)pyrazolo[1,5-a]pyrazin-6-yl)-1H-pyrazol-1-yl)ethyl)pyrrolidin-3-ol] | 10 to 100 | 1000 to 10000 | 10 to 100 | 1000 to 10000 | 
25 | CC[C@H]1CCC[C@H]1n1cc(-c2nc(-c3cnn(C[C@@H](O)CO)c3)cn3nccc23)cn1 (single isomer, unassigned) [Example 208] | 100 to 1000 |  | 10 to 100 | 1000 to 10000 | 1000 to 10000
